Laboratory results reported in patent US7635467B2, “Mammalian multipotent stem cells and compositions, methods of preparation and methods of administration thereof” (The Board of Trustees of the University of Illinois, priority 2002, dated 2009).
Entries after “also recorded” stand apart in the source; their conditions may differ.

How the values were obtained:
human MNSCs [1] = experiment: Differentiation of human MNSCs treated with recombinant sAPP, serum-free conditions; assay type: cell-based
Experimental: To investigate whether 22C11-induced inhibition of human MNSC differentiation occurs through the sequestering of sAPP or by blocking the N-terminal domain of APP on the membrane of differentiating cells, human MNSCs were treated with exogenous sAPP. Recombinant human sAPP was produced in yeast, which contains 95% sAPP695T (ending at amino acid 505 of 695) and 5% sAPP695.
The cell population of sAPP-treated human MNSCs at 5 DIV under the serum-free differentiation condition was also characterized by double immunofluorescence labeling of GFAP and bIII tubulin (FIG. 29). Treatment with sAPP dose dependently (25, 50, 100 ng/ml) increased the population of GFAP positive cells from an average of 45% in controls (no sAPP) to an average of 83% using the highest concentration of sAPP (100 ng/ml at 5 DIV).

human MNSCs [2] = experiment: Exposure of human MNSC cultures to recombinant reelin; assay type: cell-based
From the text: The cell cluster is composed of undifferentiated cultured cells with migrating and differentiating cells forming the leading outer processes.

human MeSCs = experiment: Co-culture of BrdU-treated human MeSCs with differentiated NSCs, immunocytochemistry for bIII-tubulin and GFAP; assay type: cell-based; conditions: MeSCs treated with 10 μM BrdU for 5 days; seven days post-coculture
[3] = tested on: Genomic DNA from human MeSCs; experiment: Methylation-sensitive restriction enzyme (HpaII) digestion of genomic DNA from BrdU-treated MeSCs; conditions: 0, 1 and 10 μM BrdU for 72 hr; dose-dependent

Compound: sAPP: Recombinant human sAPP produced in yeast, contains 95% sAPP695T (ending at amino acid 505 of 695) and 5% sAPP695
- population of GFAP positive cells (human MNSCs [1]; 100 ng/ml at 5 DIV, serum-free, 45% in controls): 83%
- bIII-tubulin-positive neurons in total population of differentiated human MNSCs (human MNSCs [1]; highest concentration of sAPP, 5 DIV, serum-free, 51% in controls): 13%
- differentiation pattern (GFAP / bIII-tubulin staining) compared to control (human MNSCs [1]; low doses of sAPP (e.g., 25 ng/ml), 5 DIV, serum-free): increased glial (red) and neuronal (green) differentiation
- TUNEL signal in human MNSCs (human MNSCs [1]; sAPP treatment): did not increase the TUNEL signal
- differentiation of human MNSCs (human MNSCs [1]; serum-free differentiation conditions, 25, 50 and 100 ng/ml, 5 days, dose-dependent): differentiated human MNSCs; also recorded: increased the differentiation

Compound: recombinant reelin: large extracellular matrix (ECM) protein of approximately 400 kDa
- mobility of cells in the cluster (human MNSCs [2]; addition of recombinant reelin to NSCs in culture): increased mobility of cells
- behaviour of processes of differentiating human MNSC cultures (human MNSCs [2]; exposure to recombinant reelin): immediately retract their processes back to the cell cluster

Compound: O=c1[nH]c(=O)n([C@H]2C[C@H](O)[C@@H](CO)O2)cc1Br [BrdU, 5-bromo-2-deoxyuridine]
- GFAP-immunopositive large flattened multipolar cells, of total cells (human MeSCs): approximately 60%
- bIII-tubulin immunopositive small bipolar and unipolar cells, of total cells (human MeSCs): approximately 40%
- HpaII digestion of genomic DNA (size of DNA fragments) [3]: prevented enzyme digestion; also recorded: prevents methylation-sensitive restriction enzyme digestion of DNA
